Data as given in patent US9486427B2, “Administration of aerosolised iloprost” (VECTURA GMBH, priority 2012, dated 2016).
Where two headings read alike, the source gives them in different places.

What was measured:
[1] = 2.8 μg in 2 minutes, ultrasonic nebuliser; cited from earlier work
[2] = tested on: patients with pulmonary arterial hypertension; assay: Clinical pilot study of safety and tolerability of rapidly inhaled nebulised iloprost (Example 3); assay type: in vivo, human
Method: A clinical pilot study to evaluate the safety and tolerability of nebulised iloprost administered by inhalation according to the invention was conducted with 4 patients. Eligible were male and female patients with pulmonary arterial hypertension in the age from 18 to 70 years having a mean pulmonary arterial blood pressure (PAP) higher than 25 mm Hg, a pulmonary vascular resistance (PVR) higher than 240 dyn*s*cm^−5, a central venous pressure (CVP) higher than 3 mm Hg, and a pulmonary capillary wedge pressure (PCWP) lower than 12 mm Hg. Excluded were patients with a contraindication for cardiac catheterisation (such as coagulopathy, bleeding disorder, acute infection, severe cardiac dysrhythmia), pregnancy, systemic systolic blood pressure below 110 mm Hg, highly impaired ventricular function with cardiac index below 1.8 L/min*m^2, and known lack of pulmonary vascular reactivity. Patients were monitored by ECG, pulse oxymetry, and non-invasive blood pressure measurement. An intracardiac catheter was introduced into the distal pulmonary artery to measure PAP, CVP, PCWP, and cardiac output. Also measured were the heart rate, systemic arterial pressure (SAP), systemic vascular resistance (SVR), central arterial and venous blood gases. After the initial determination of all parameters the reactivity of the pulmonary vasculature to oxygen (2 to 4 L/min) and nitric oxide (20 ppm) was tested. Subsequently, patients inhaled a single dose of 2.5 μg of nebulised iloprost in two consecutive breaths, using the same inhalation system and iloprost composition as described in Example 1. Haemodynamics parameters and clinical condition of the patients were assessed before and up to 30 minutes after inhalation. In the absence of adverse effects, a second inhalation maneuver with 4 consecutive breaths corresponding to a dose 5 μg iloprost was performed, again followed by an observation period of at least 30 minutes.

[3] = cited from earlier work
[4] = tested on: patients suffering from pulmonary hypertension (PH); assay: Iloprost inhalation in six further patients (Example 4); assay type: in vivo, human; conditions: rapid inhalation as in Example 3
Method: Six further patients suffering from pulmonary hypertension (PH) were treated with iloprost inhalation as in Example 3.

[5] = 2.5 μg and 5 μg rapid inhalation

In the case of CC#CCC(C)[C@H](O)/C=C/[C@@H]1[C@H]2C/C(=C/CCCC(=O)O)C[C@H]2C[C@H]1O (stereo partly drawn) [Iloprost, 5-{(E)-(1S,5S,6R,7R)-7-hydroxy-6[(E)-(3S,4RS)-3-hydroxy-4-methyl-1-octen-6-inyl]-bi-cyclo[3.3.0]octan-3-ylidene}pentanoic acid], the “systemic effects of rapid inhalation (drop in blood pressure, decrease in systemic vascular resistance, flush, jaw pain)” value [1] is listed as “adverse systemic effects”, the “systemic side effects (SAP and SVR changes) versus slow inhalation of iloprost” value [2, 5] is listed as “similar” and the “therapeutic pulmonary vascular effects (PAP and PVR changes) versus slow inhalation of iloprost” value [2, 5] is listed as “comparable to those observed after conventional iloprost treatment”. For the same compound, the “tolerability of the treatment” value ([2]; 2.5 μg in two breaths, then 5 μg in 4 breaths, inhaled, 4 patients) was “all patients tolerated the treatment well”, the solubility ([3]; aqueous buffer pH 9) was “sparingly soluble” and the aqueous solubility [3] was “rather poor”. The solubility ([3]; distilled water and aqueous buffer at pH 3 and pH 5) was “very slightly soluble”, the solubility ([3]; methanol, ethanol, ethyl acetate, acetone and aqueous buffer at pH 7) was “soluble” and the adverse effects [4] was “no adverse effects were observed other than the SAP and SVR changes which were mild”. The pulmonary vascular effects ([4]; PAH, iPAH, portopulmonary, CTEPH) was “very comparable to those found in Example 3”.
